This is an account of results in US11446287B2, “Compounds and methods for EP300 or CBP modulation and indications therefor” (Opna Immuno-Oncology SA, priority 2019, dated 2022).

Each structure is given as a SMILES string.

This experiment addresses T1, Recombinant human BRD4 containing dual bromodomains (BRD4-BD12 (1-477)) (Homo sapiens, UniProt O60885).
T1 construct: Recombinant human BRD4 containing dual bromodomains (BRD4-BD12 (1-477)); made in house; host or cells: E. coli BL21-CodonPlus (DE3), modified pET vector
Description: BRD4 Alphascreen binding assay. The procedure, abridged: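 His-tagged human BRD4 tandem bromodomains (1-477, E. coli) incubated 1 h at room temperature with biotinylated tetra-acetylated H4 (1-21) peptide and compound in HEPES pH 7.5 buffer with 2 mM DTT. AlphaScreen signal read 30 min after adding beads (7.5 μg/ml); IC50 from four-parameter fit after normalization to controls.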
(In Alpha technology, singlet oxygen from a donor bead excites a nearby acceptor bead.)

One may read the IC50 as the concentration at which inhibition is half-maximal. Take `Cc1noc(C)c1-c1cnc2c(c1)c(-c1ccc(C(=O)O)cc1OC1CC1)cn2-c1ncccc1C#N` [P-0337, 4-(1-(3-cyanopyridin-2-yl)-5-(3,5-dimethylisoxazol-4-yl)-1H-pyrrolo[2,3-b]pyridin-3-yl)-3-cyclopropoxybenzoic acid]: the IC50 lay in the range of 8 to 1000 µM.
Then `Cc1noc(C)c1-c1cnc2c(c1)c(-c1ccc(C(=O)O)cc1OCC(F)F)cn2C(C1CC1)C1CC1` [P-0338, 4-(1-(dicyclopropylmethyl)-5-(3,5-dimethylisoxazol-4-yl)-1H-pyrrolo[2,3-b]pyridin-3-yl)-3-(2,2-difluoroethoxy)benzoic acid], with 8 to 1000 µM.
Then `COc1cc(C(=O)O)ncc1-c1cn(C(C2CC2)C2CC2)c2ncc(-c3c(C)noc3C)cc12` [P-0339, 5-(1-(dicyclopropylmethyl)-5-(3,5-dimethylisoxazol-4-yl)-1H-pyrrolo[2,3-b]pyridin-3-yl)-4-methoxypicolinic acid], with 1 to 8 µM.
Then `Cc1noc(C)c1-c1cnc2c(c1)c(-c1c(Cl)cc(C(=O)O)cc1OCC(F)F)cn2C(C1CC1)C1CC1` [P-0340, 3-chloro-4-(1-(dicyclopropylmethyl)-5-(3,5-dimethylisoxazol-4-yl)-1H-pyrrolo[2,3-b]pyridin-3-yl)-5-(2,2-difluoroethoxy)benzoic acid], with 8 to 1000 µM.
As to `Cc1noc(C)c1-c1cnc2c(c1)c(-c1ccc(C(=O)O)cc1OC1CCC1)cn2C1CCOCC1` [P-0341, 3-cyclobutoxy-4-(5-(3,5-dimethylisoxazol-4-yl)-1-(tetrahydro-2H-pyran-4-yl)-1H-pyrrolo[2,3-b]pyridin-3-yl)benzoic acid], the IC50 lay within 8 to 1000 µM.
Then `Cc1noc(C)c1-c1cnc2c(c1)c(-c1ccc(C(=O)O)cc1OC(C)C)c(C)n2C(C1CC1)C1CC1` [P-0342, 4-(1-(dicyclopropylmethyl)-5-(3,5-dimethylisoxazol-4-yl)-2-methyl-1H-pyrrolo[2,3-b]pyridin-3-yl)-3-isopropoxybenzoic acid], with 8 to 1000 µM; and `Cc1noc(C)c1-c1cnc2c(c1)c(-c1ccc(C(=O)O)cc1OC(F)(F)F)c(C)n2C(C1CC1)C1CC1` [P-0343, 4-(1-(dicyclopropylmethyl)-5-(3,5-dimethylisoxazol-4-yl)-2-methyl-1H-pyrrolo[2,3-b]pyridin-3-yl)-3-(trifluoromethoxy)benzoic acid], with 8 to 1000 µM.
Then `Cc1noc(C)c1-c1ccc2c(c1)c(-c1ccc(C(=O)O)cc1OC(F)(F)F)cn2C(C1CC1)C1CC1` [P-0344, 4-(1-(dicyclopropylmethyl)-5-(3,5-dimethylisoxazol-4-yl)-1H-indol-3-yl)-3-(trifluoromethoxy)benzoic acid], with 8 to 1000 µM; and `Cc1noc(C)c1-c1cnc2c(c1)c(-c1ccc(C(=O)O)cc1OC(F)(F)F)c(C)n2-c1ncccc1C#N` [P-0345, 4-(1-(3-cyanopyridin-2-yl)-5-(3,5-dimethylisoxazol-4-yl)-2-methyl-1H-pyrrolo[2,3-b]pyridin-3-yl)-3-(trifluoromethoxy)benzoic acid], with 8 to 1000 µM.
Then `Cc1noc(C)c1-c1cnc2c(c1)c(-c1c(Cl)cc(C(=O)O)cc1OC(F)(F)F)cn2[C@H]1CCOC1` [P-0346, (S)-3-chloro-4-(5-(3,5-dimethylisoxazol-4-yl)-1-(tetrahydrofuran-3-yl)-1H-pyrrolo[2,3-b]pyridin-3-yl)-5-(trifluoromethoxy)benzoic acid], with 8 to 1000 µM; and `Cc1noc(C)c1-c1cnc2c(c1)c(-c1ccc(C(=O)O)cc1OC1CCC1)cn2-c1cnc(N2CCC2)nc1` [P-0347, 4-(1-(2-(azetidin-1-yl)pyrimidin-5-yl)-5-(3,5-dimethylisoxazol-4-yl)-1H-pyrrolo[2,3-b]pyridin-3-yl)-3-cyclobutoxybenzoic acid], with 8 to 1000 µM.
In the case of `Cc1noc(C)c1-c1cnc2c(c1)c(-c1c(F)cc(C(=O)O)cc1OCC(F)F)cn2-c1cnc(N2CCC2)nc1` [P-0348, 4-(1-(2-(azetidin-1-yl)pyrimidin-5-yl)-5-(3,5-dimethylisoxazol-4-yl)-1H-pyrrolo[2,3-b]pyridin-3-yl)-3-(2,2-difluoroethoxy)-5-fluorobenzoic acid], the IC50 lay in the range of 8 to 1000 µM.
Then `Cc1nn(C(F)F)cc1-n1cc(-c2ccc(C(=O)O)cc2OCC(F)F)c2cc(-c3c(C)noc3C)cnc21` [P-0349, 3-(2,2-difluoroethoxy)-4-(1-(1-(difluoromethyl)-3-methyl-1H-pyrazol-4-yl)-5-(3,5-dimethylisoxazol-4-yl)-1H-pyrrolo[2,3-b]pyridin-3-yl)benzoic acid], with 8 to 1000 µM; and `Cc1noc(C)c1-c1cnc2c(c1)c(-c1ccc(C(=O)O)cc1OC1CCC1)cn2[C@H]1CCOC1` [P-0350, (S)-3-cyclobutoxy-4-(5-(3,5-dimethylisoxazol-4-yl)-1-(tetrahydrofuran-3-yl)-1H-pyrrolo[2,3-b]pyridin-3-yl)benzoic acid], with 8 to 1000 µM.
Then `Cc1nn(C(F)F)cc1-n1cc(-c2ccc(C(=O)O)cc2OC2CCC2)c2cc(-c3c(C)noc3C)cnc21` [P-0351, 3-cyclobutoxy-4-(1-(1-(difluoromethyl)-3-methyl-1H-pyrazol-4-yl)-5-(3,5-dimethylisoxazol-4-yl)-1H-pyrrolo[2,3-b]pyridin-3-yl)benzoic acid], with 8 to 1000 µM; and `Cc1noc(C)c1-c1cnc2c(c1)c(-c1c(Cl)cc(C(=O)O)cc1OCC(F)F)cn2-c1cnn(C(F)F)c1C` [P-0352, 3-chloro-5-(2,2-difluoroethoxy)-4-(1-(1-(difluoromethyl)-5-methyl-1H-pyrazol-4-yl)-5-(3,5-dimethylisoxazol-4-yl)-1H-pyrrolo[2,3-b]pyridin-3-yl)benzoic acid], with 1 to 8 µM.
Then `Cc1noc(C)c1-c1cnc2c(c1)c(-c1ccc(C(=O)O)cc1OC1CCC1)cn2-c1cnn(C(F)F)c1C` [P-0353, 3-cyclobutoxy-4-(1-(1-(difluoromethyl)-5-methyl-1H-pyrazol-4-yl)-5-(3,5-dimethylisoxazol-4-yl)-1H-pyrrolo[2,3-b]pyridin-3-yl)benzoic acid], with 8 to 1000 µM; and `Cc1noc(C)c1-c1cnc2c(c1)c(-c1ccc(C(=O)O)cc1OC(C)C)cn2-c1cnn(C(F)F)c1C` [P-0354, 4-(1-(1-(difluoromethyl)-5-methyl-1H-pyrazol-4-yl)-5-(3,5-dimethylisoxazol-4-yl)-1H-pyrrolo[2,3-b]pyridin-3-yl)-3-isopropoxybenzoic acid], with 8 to 1000 µM.
As for `Cc1noc(C)c1-c1cnc2c(c1)c(-c1c(Cl)cc(C(=O)O)cc1OC(F)(F)F)cn2C1CCOCC1` [P-0355, 3-chloro-4-(5-(3,5-dimethylisoxazol-4-yl)-1-(tetrahydro-2H-pyran-4-yl)-1H-pyrrolo[2,3-b]pyridin-3-yl)-5-(trifluoromethoxy)benzoic acid], the IC50 lay in the range of 1 to 8 µM.
Then `Cc1noc(C)c1-c1cnc2c(c1)c(-c1c(Cl)cc(C(=O)O)cc1OC1CCC1)cn2C(C1CC1)C1CC1` [P-0356, 3-chloro-5-cyclobutoxy-4-(1-(dicyclopropylmethyl)-5-(3,5-dimethylisoxazol-4-yl)-1H-pyrrolo[2,3-b]pyridin-3-yl)benzoic acid], with 1 to 8 µM; and `Cc1noc(C)c1-c1cnc2c(c1)c(-c1ccc(C(=O)O)cc1OC(C)C)cn2C1CCOCC1` [P-0357, 4-(5-(3,5-dimethylisoxazol-4-yl)-1-(tetrahydro-2H-pyran-4-yl)-1H-pyrrolo[2,3-b]pyridin-3-yl)-3-isopropoxybenzoic acid], with 8 to 1000 µM.
